Experimental data from PubChem BioAssay (NCI).
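48-hour exposure; five concentrations; linearly interpolated endpoints. GI50 = concentration required for 50% inhibition of growth. Definition used: TGI = concentration required for complete inhibition of growth.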 Where a SMILES comes first, the peptide text is derived from it. [ ]: non-standard residue; d: D form. The star is where a group is joined. Nle = CCCC[C@H](N)C(=O)O; Cbz = O=C(OCc1ccccc1)*

What was measured:
Test in all cases: NCI tumour cell line growth inhibition, 48 h
MALME-3M melanoma = tested on: MALME-3M melanoma
M14 melanoma = tested on: M14 melanoma
KM12 colon = tested on: KM12 colon
NCI-H460 lung = tested on: NCI-H460 lung
NCI-H522 lung = tested on: NCI-H522 lung
RPMI-8226 leukemia = tested on: RPMI-8226 leukemia
786-0 renal = tested on: 786-0 renal
UACC-257 melanoma = tested on: UACC-257 melanoma
OVCAR-3 ovarian = tested on: OVCAR-3 ovarian
SK-MEL-5 melanoma = tested on: SK-MEL-5 melanoma
COLO 205 colon = tested on: COLO 205 colon
SK-MEL-2 melanoma = tested on: SK-MEL-2 melanoma
DU-145 prostate = tested on: DU-145 prostate
PC-3 prostate = tested on: PC-3 prostate
HOP-62 NSCLC = tested on: HOP-62 NSCLC
ACHN renal = tested on: ACHN renal
A498 renal = tested on: A498 renal
CAKI-1 renal = tested on: CAKI-1 renal
A549 NSCLC = tested on: A549 NSCLC
LOX IMVI melanoma = tested on: LOX IMVI melanoma
MOLT-4 leukemia = tested on: MOLT-4 leukemia
SNB-19 CNS = tested on: SNB-19 CNS
HCC-2998 colon = tested on: HCC-2998 colon
IGROV1 ovarian = tested on: IGROV1 ovarian
UO-31 renal = tested on: UO-31 renal
SF-268 CNS = tested on: SF-268 CNS
CCRF-CEM leukemia = tested on: CCRF-CEM leukemia
HOP-92 NSCLC = tested on: HOP-92 NSCLC
HS 578T breast = tested on: HS 578T breast
SW-620 colon = tested on: SW-620 colon
SF-295 CNS = tested on: SF-295 CNS
U251 CNS = tested on: U251 CNS
TK-10 renal = tested on: TK-10 renal
NCI/ADR-RES ovarian = tested on: NCI/ADR-RES ovarian
SK-MEL-28 melanoma = tested on: SK-MEL-28 melanoma
K-562 leukemia = tested on: K-562 leukemia
UACC-62 melanoma = tested on: UACC-62 melanoma
NCI-H226 lung = tested on: NCI-H226 lung
OVCAR-4 ovarian = tested on: OVCAR-4 ovarian
RXF 393 renal = tested on: RXF 393 renal
SR leukemia = tested on: SR leukemia
MDA-MB-231 breast = tested on: MDA-MB-231 breast
HL-60(TB) leukemia = tested on: HL-60(TB) leukemia
T-47D breast = tested on: T-47D breast
HCT-116 colon = tested on: HCT-116 colon
NCI-H23 lung = tested on: NCI-H23 lung
SF-539 CNS = tested on: SF-539 CNS
HCT-15 colon = tested on: HCT-15 colon
MDA-MB-435 = tested on: MDA-MB-435
OVCAR-5 ovarian = tested on: OVCAR-5 ovarian
MCF7 breast = tested on: MCF7 breast
HT29 colon = tested on: HT29 colon
SK-OV-3 ovarian = tested on: SK-OV-3 ovarian
OVCAR-8 ovarian = tested on: OVCAR-8 ovarian
BT-549 breast = tested on: BT-549 breast
EKVX NSCLC = tested on: EKVX NSCLC

CCCC[C@@H](C=O)NC(=O)[C@H](CC(C)C)NC(=O)[C@H](CC(C)C)NC(=O)OCc1ccccc1 (Cbz-Leu-Leu-[Nle]-aldehyde)
GI50 (MALME-3M melanoma): 570 nM | TGI (MALME-3M melanoma): 4870 nM | GI50 (M14 melanoma): 244 nM | TGI (M14 melanoma): 603 nM | GI50 (KM12 colon): 504 nM | GI50 (NCI-H460 lung): 1570 nM | TGI (NCI-H460 lung): 6280 nM | GI50 (NCI-H522 lung): 662 nM | TGI (NCI-H522 lung): 5820 nM | GI50 (RPMI-8226 leukemia): 359 nM | GI50 (786-0 renal): 243 nM | TGI (786-0 renal): 1410 nM | GI50 (UACC-257 melanoma): 395 nM | TGI (UACC-257 melanoma): 1960 nM | GI50 (OVCAR-3 ovarian): 361 nM | TGI (OVCAR-3 ovarian): 4660 nM | GI50 (SK-MEL-5 melanoma): 432 nM | TGI (SK-MEL-5 melanoma): 1880 nM | GI50 (COLO 205 colon): 979 nM | TGI (COLO 205 colon): 6200 nM | GI50 (SK-MEL-2 melanoma): 791 nM | TGI (SK-MEL-2 melanoma): 2840 nM | GI50 (DU-145 prostate): 617 nM | TGI (DU-145 prostate): 2460 nM | GI50 (PC-3 prostate): 2370 nM | TGI (PC-3 prostate): > 21100 nM | GI50 (HOP-62 NSCLC): 415 nM | TGI (HOP-62 NSCLC): 1550 nM | GI50 (ACHN renal): 366 nM | TGI (ACHN renal): 2430 nM | GI50 (A498 renal): 305 nM | TGI (A498 renal): 964 nM | GI50 (CAKI-1 renal): 441 nM | TGI (CAKI-1 renal): 2150 nM | GI50 (A549 NSCLC): 663 nM | TGI (A549 NSCLC): 12200 nM | GI50 (LOX IMVI melanoma): 226 nM | TGI (LOX IMVI melanoma): 537 nM | GI50 (MOLT-4 leukemia): 517 nM | TGI (MOLT-4 leukemia): > 100000 nM | GI50 (SNB-19 CNS): 5370 nM | TGI (SNB-19 CNS): > 21200 nM | GI50 (HCC-2998 colon): 593 nM | TGI (HCC-2998 colon): 1960 nM | GI50 (IGROV1 ovarian): 308 nM | TGI (IGROV1 ovarian): 4390 nM | GI50 (UO-31 renal): 398 nM | TGI (UO-31 renal): 1670 nM | GI50 (SF-268 CNS): 406 nM | TGI (SF-268 CNS): 4170 nM | GI50 (CCRF-CEM leukemia): 440 nM | TGI (CCRF-CEM leukemia): > 100000 nM | GI50 (HOP-92 NSCLC): 2090 nM | TGI (HOP-92 NSCLC): 6220 nM | GI50 (HS 578T breast): 308 nM | TGI (HS 578T breast): 4180 nM | GI50 (SW-620 colon): 298 nM | TGI (SW-620 colon): 2500 nM | GI50 (SF-295 CNS): 486 nM | TGI (SF-295 CNS): 5710 nM | GI50 (U251 CNS): 570 nM | TGI (U251 CNS): 2120 nM | GI50 (TK-10 renal): 332 nM | GI50 (NCI/ADR-RES ovarian): 3960 nM | TGI (NCI/ADR-RES ovarian): > 32600 nM | GI50 (SK-MEL-28 melanoma): 430 nM | TGI (SK-MEL-28 melanoma): 1610 nM | GI50 (K-562 leukemia): 988 nM | TGI (K-562 leukemia): > 100000 nM | GI50 (UACC-62 melanoma): 403 nM | TGI (UACC-62 melanoma): 1510 nM | GI50 (NCI-H226 lung): 175 nM | TGI (NCI-H226 lung): 343 nM | GI50 (OVCAR-4 ovarian): 1070 nM | TGI (OVCAR-4 ovarian): > 81000 nM | GI50 (RXF 393 renal): 144 nM | TGI (RXF 393 renal): 316 nM | GI50 (SR leukemia): 279 nM | TGI (SR leukemia): 1360 nM | GI50 (MDA-MB-231 breast): 444 nM | TGI (MDA-MB-231 breast): 1910 nM | GI50 (HL-60(TB) leukemia): 1010 nM | TGI (HL-60(TB) leukemia): > 100000 nM | GI50 (T-47D breast): 688 nM | GI50 (HCT-116 colon): 173 nM | TGI (HCT-116 colon): 349 nM | GI50 (NCI-H23 lung): 380 nM | TGI (NCI-H23 lung): 1770 nM | GI50 (SF-539 CNS): 268 nM | TGI (SF-539 CNS): 2530 nM | GI50 (HCT-15 colon): 1270 nM | TGI (HCT-15 colon): 4940 nM | GI50 (MDA-MB-435): 212 nM | TGI (MDA-MB-435): 469 nM | GI50 (OVCAR-5 ovarian): 930 nM | TGI (OVCAR-5 ovarian): 2840 nM | GI50 (MCF7 breast): 546 nM | TGI (MCF7 breast): 20700 nM | GI50 (HT29 colon): 349 nM | TGI (HT29 colon): > 34000 nM | GI50 (SK-OV-3 ovarian): 1310 nM | TGI (SK-OV-3 ovarian): > 71500 nM | GI50 (OVCAR-8 ovarian): 1410 nM | TGI (OVCAR-8 ovarian): > 37500 nM | GI50 (BT-549 breast): 409 nM | TGI (BT-549 breast): 2590 nM | GI50 (EKVX NSCLC): 1060 nM | TGI (EKVX NSCLC): > 59000 nM
